Assay results taken from patent US20180221435A1, “ITCH TREATMENT USING A COMBINATION OF NEUROKININ-1, GASTRIN RELEASING PEPTIDE, AND GLUTAMATE RECEPTOR ANTAGONISTS” (The Regents of the University of California, priority 2013, published 2018).
Entries after “also recorded” stand apart in the source; their conditions may differ.

Assays:
[1] = tested on: histamine-evoked scratching; test: Histamine-evoked scratching behavior after intrathecal antagonists; format: in vivo, mice; conditions: intrathecal CNQX 20 nmol, 5 min before id histamine 271 nmol
Text: The fur on the rostral back was shaved and mice were habituated to the Plexiglas recording arena one week prior to testing. For intrathecal injections, either vehicle (saline), the GRP receptor antagonist RC-3095 (0.3 nmol; Sigma-Aldrich, St. Louis Mo.), the NK-1 antagonist L-733060 (22.7 nmol; Tocris Bioscience, Minneapolis, Minn.), the AMPA/kainate antagonist CNQX (20 nmol; Tocris Bioscience), a combination of CNQX (20 nmol) and L-733060 (22.7 nmol), or a combination of RC-3095 (0.3 nmol), CNQX (20 nmol) and L-733060 (22.7 nmol), was administered by lumbar puncture, followed 5 minutes later by id injection (10 μl) of either chloroquine (193 nmol; Sigma-Aldrich) or histamine (271 nmol; Sigma-Aldrich). Microinjections were made id in the nape of the neck using a 30 G needle attached to a Hamilton microsyringe by PE-50 tubing. Immediately after the id injection the mouse was placed into the arena and videotaped from above for 30 min. Generally 3-4 mice were injected and videotaped simultaneously. Immediately after commencing videotaping all investigators left the room.
Videotapes were reviewed by investigators blinded to the treatment, and the number of scratch bouts was counted at 5-minute intervals. […] Hind paw movements directed away from the injection site (e.g., ear-scratching) and grooming movements were not counted. […]

[2] = tested on: superficial dorsal horn neurons; test: In vivo single-unit recording, noxious pinch-evoked responses, spinal superfusion of antagonists; design: species or system mice; conditions: pinch at end of 1 min superfusion
Procedure: Akiyama T et al., The Journal of neuroscience: the official journal of the Society for Neuroscience 29(20):6691-6699 (2009)]. Anesthesia was induced by sodium pentobarbital (60 mg/kg ip) and maintained by supplemental injections (10-20 mg/kg/hr). […] A tungsten microelectrode recorded single-unit activity in the lumbar spinal cord. A chemical search strategy [Akiyama T et al., Journal of neurophysiology 102(4):2176-2183 2009; […] Units were classified as wide dynamic range (WDR)-type if they responded in a graded manner to innocuous mechanical stimulation (brushing, cotton wisp) and noxious pinch, or nociceptive-specific (NS) if they responded to noxious pinch (and to the 55 mN von Frey stimulus) but not to the cotton wisp or brush stimuli. […] Akiyama T et al., The Journal of neuroscience: the official journal of the Society for Neuroscience 29(20):6691-6699 (2009)]. […] At the end of the antagonist superfusion, the noxious pinch stimulus was delivered again at the same site on the receptive field. Thirty minutes later, the noxious pinch stimulus was delivered in the same manner. Action potentials were recorded to a computer and counted using Chart software (AD Instruments, Colorado Springs Colo.) and Spike2 software (CED Instruments). […]

[3] = tested on: superficial dorsal horn neurons; test: In vivo single-unit recording, id histamine-evoked firing, spinal superfusion of antagonists; design: species or system mice
Procedure: Akiyama T et al., The Journal of neuroscience: the official journal of the Society for Neuroscience 29(20):6691-6699 (2009)]. Anesthesia was induced by sodium pentobarbital (60 mg/kg ip) and maintained by supplemental injections (10-20 mg/kg/hr). […] A tungsten microelectrode recorded single-unit activity in the lumbar spinal cord. A chemical search strategy [Akiyama T et al., Journal of neurophysiology 102(4):2176-2183 2009; […] Following mechanical stimulation, histamine (50 μg) was injected id within the same receptive field at a different location via a separate injection cannula. Following the id histamine injection, we tested the effects of antagonists for the receptors of NK1, GRP, or AMPA/kainate in the same manner as described above for chloroquine. […] Following the AITC application, we tested the effects of the NK-1 receptor antagonist, the AMPA/kainate receptor antagonist, or a combination of both antagonists in the same manner as described above for chloroquine. Action potentials were recorded to a computer and counted using Chart software (AD Instruments, Colorado Springs Colo.) and Spike2 software (CED Instruments). […] Mean peak responses elicited by noxious pinch were compared by one way repeated-measures ANOVA followed by post-hoc Bonferroni test, with p<0.05 set as significant. At the end of each experiment, an electrolytic lesion was made at the spinal cord recording site.

Compound: N#Cc1cc2[nH]c(=O)c(=O)[nH]c2cc1[N+](=O)[O-] [CNQX]
- histamine-evoked scratching (scratch bouts/30 minutes) [1]: significantly decreased; also recorded: significantly reduced; also recorded: prevented histamine-evoked scratching behavior
- noxious pinch-evoked response, effect of spinal superfusion [2]: significantly reduced
- histamine-evoked response of NS units ([3]; NS units, vs vehicle): significantly reduced
- histamine-evoked response of WDR units ([3]; WDR units, vs vehicle): significantly reduced
- histamine-evoked firing, effect of spinal superfusion ([3]; all units): significantly attenuated histamine-evoked firing to a level not different from that elicited by id injection of vehicle (saline); also recorded: almost completely abolished histamine-evoked firing
